Assay results from patent US10251395B2, “Substituted furano-/thienocycloalkylamino-2-pyrimidine derivatives and use thereof for controlling undesired plant growth” (Bayer CropScience Aktiengesellschaft, priority 2015, dated 2019).

Key:
Assay type in all cases: in vivo
Echinochloa crus-galli [1] = assay: Pre-emergence herbicidal effect; conditions: scored visually after 3 weeks
Source text: (§1) Seeds of monocotyledonous and dicotyledonous weed plants and crop plants are laid out in wood-fiber pots in sandy loam and covered with soil. The compounds of the invention, formulated in the form of wettable powders (WP) or as emulsion concentrates (EC), are then applied to the surface of the covering soil as aqueous suspension or emulsion at a water application rate equating to 600 to 800 L/ha with addition of 0.2% wetting agent.
(§2) After the treatment, the pots are placed in a greenhouse and kept under good growth conditions for the trial plants. The damage to the test plants is scored visually after a test period of 3 weeks by comparison with untreated controls (herbicidal activity in percent (%): 100% activity=the plants have died, 0% activity=like control plants).
(§3) • ABUTH: Abutilon theophrasti ALOMY: Alopecurus myosuroides • AMARE: Amaranthus retroflexus AVEFA: Avena fatua • CYPES: Cyperus esculentus ECHCG: Echinochloa crus-galli • LOLMU: Lolium multiflorum MATIN: Matricaria inodora • PHBPU: Ipomoea purpurea POLCO: Polygonum convolvulus • SETVI: Setaria viridis STEME: Stellaria media • VERPE: Veronica persica VIOTR: Viola tricolor

Stellaria media [2] = assay: Pre-emergence herbicidal effect; conditions: scored visually after 3 weeks
Source text: as §1, §2, §3

Amaranthus retroflexus [3] = assay: Pre-emergence herbicidal effect; conditions: scored visually after 3 weeks
Source text: as §1, §2, §3

Veronica persica [4] = assay: Pre-emergence herbicidal effect; conditions: scored visually after 3 weeks
Source text: as §1, §2, §3

Setaria viridis [5] = assay: Pre-emergence herbicidal effect; conditions: scored visually after 3 weeks
Source text: as §1, §2, §3

Matricaria inodora = assay: Pre-emergence herbicidal effect; conditions: scored visually after 3 weeks
Source text: as §1, §2, §3

Viola tricolor [6] = assay: Pre-emergence herbicidal effect; conditions: scored visually after 3 weeks
Source text: as §1, §2, §3

Alopecurus myosuroides = assay: Pre-emergence herbicidal effect; conditions: scored visually after 3 weeks
Source text: as §1, §2, §3

Echinochloa crus-galli [7] = assay: Post-emergence herbicidal effect; conditions: 320 g/ha, assessed visually after about 3 weeks vs untreated controls
Source text: (§4) • ABUTH: Abutilon theophrasti ALOMY: Alopecurus myosuroides • AMARE: Amaranthus retroflexus AVEFA: Avena fatua • CYPES: Cyperus esculentus ECHCG: Echinochloa crus-galli • LOLMU: Lolium multiflorum MATIN: Matricaria inodora • PHBPU: Ipomoea purpurea POLCO: Polygonum convolvulus • SETVI: Setaria viridis STEME: Stellaria media • VERPE: Veronica persica VIOTR: Viola tricolor Seeds of monocotyledonous and dicotyledonous weed and crop plants are laid out in sandy loam in wood-fiber pots, covered with soil and cultivated in a greenhouse under good growth conditions. 2 to 3 weeks after sowing, the test plants are treated at the one-leaf stage. The compounds of the invention, formulated in the form of wettable powders (WP) or as emulsion concentrates (EC), are then sprayed onto the green parts of the plants as aqueous suspension or emulsion at a water application rate equating to 600 to 800 L/ha with addition of 0.2% wetting agent. After the test plants have been left to stand in the greenhouse under optimal growth conditions for about 3 weeks, the action of the preparations is assessed visually in comparison to untreated controls (herbicidal action in percent (%): 100% activity=the plants have died, 0% activity=like control plants).

Stellaria media [8] = assay: Post-emergence herbicidal effect; conditions: assessed visually after about 3 weeks vs untreated controls
Source text: as §4

Ipomoea purpurea = assay: Post-emergence herbicidal effect; conditions: assessed visually after about 3 weeks vs untreated controls
Source text: as §4

Amaranthus retroflexus [9] = assay: Post-emergence herbicidal effect; conditions: assessed visually after about 3 weeks vs untreated controls
Source text: as §4

Veronica persica [10] = assay: Post-emergence herbicidal effect; conditions: assessed visually after about 3 weeks vs untreated controls
Source text: as §4

Setaria viridis [11] = assay: Post-emergence herbicidal effect; conditions: assessed visually after about 3 weeks vs untreated controls
Source text: as §4

Viola tricolor [12] = assay: Post-emergence herbicidal effect; conditions: assessed visually after about 3 weeks vs untreated controls
Source text: as §4

Lolium multiflorum = assay: Pre-emergence herbicidal effect; conditions: Dosage 320 g/ha, scored visually after 3 weeks
Source text: as §1, §2, §3

Polygonum convolvulus = assay: Pre-emergence herbicidal effect; conditions: scored visually after 3 weeks
Source text: as §1, §2, §3

Abutilon theophrasti = assay: Post-emergence herbicidal effect; conditions: assessed visually after about 3 weeks vs untreated controls
Source text: as §4

SMILES	ECHCG pre-emergence efficacy (herbicidal activity) (Echinochloa crus-galli [1]; Dosage 320 g/ha) [%]	STEME pre-emergence efficacy (herbicidal activity) (Stellaria media [2]; Dosage 320 g/ha) [%]	AMARE pre-emergence efficacy (herbicidal activity) (Amaranthus retroflexus [3]; Dosage 320 g/ha) [%]	VERPE pre-emergence efficacy (herbicidal activity) (Veronica persica [4]; Dosage 80 g/ha) [%]	VERPE pre-emergence efficacy (herbicidal activity) (Veronica persica [4]; Dosage 320 g/ha) [%]	SETVI pre-emergence efficacy (herbicidal activity) (Setaria viridis [5]; Dosage 320 g/ha) [%]	MATIN pre-emergence efficacy (herbicidal activity) (Matricaria inodora; Dosage 80 g/ha) [%]	MATIN pre-emergence efficacy (herbicidal activity) (Matricaria inodora; Dosage 320 g/ha) [%]	VIOTR pre-emergence efficacy (herbicidal activity) (Viola tricolor [6]; Dosage 80 g/ha) [%]	VIOTR pre-emergence efficacy (herbicidal activity) (Viola tricolor [6]; Dosage 320 g/ha) [%]	ALOMY pre-emergence efficacy (herbicidal activity) (Alopecurus myosuroides; Dosage 320 g/ha) [%]	post-emergence efficacy STEME (Stellaria media [8]; 320 g/ha) [%]	post-emergence efficacy PHBPU (Ipomoea purpurea; 320 g/ha) [%]	post-emergence efficacy VERPE (Veronica persica [10]; 320 g/ha) [%]	post-emergence efficacy SETVI (Setaria viridis [11]; 320 g/ha) [%]	post-emergence efficacy VIOTR (Viola tricolor [12]; 80 g/ha) [%]	post-emergence efficacy VIOTR (Viola tricolor [12]; 320 g/ha) [%]	STEME pre-emergence efficacy (herbicidal activity) (Stellaria media [2]; Dosage 80 g/ha) [%]	LOLMU pre-emergence efficacy (herbicidal activity) (Lolium multiflorum) [%]	POLCO pre-emergence efficacy (herbicidal activity) (Polygonum convolvulus; Dosage 320 g/ha) [%]	other results
Nc1nc(NC2CCc3cc(Cl)sc32)ncc1C(F)(F)F (racemic) [compound 48]	100	100	100	100	100	80	80	90	100	100	80	90	80	80	90	80	90	–	–	–	ECHCG pre-emergence efficacy (herbicidal activity) (Echinochloa crus-galli [1]; Dosage 80 g/ha): 100%; post-emergence efficacy ECHCG (Echinochloa crus-galli [7]): 100%; post-emergence efficacy AMARE (Amaranthus retroflexus [9]; 80 g/ha): 80%; post-emergence efficacy AMARE (Amaranthus retroflexus [9]; 320 g/ha): 90%; post-emergence efficacy SETVI (Setaria viridis [11]; 80 g/ha): 80%
CS(=O)(=O)c1cnc(NC2CCc3cc(Cl)sc32)nc1N (racemic) [compound 50]	100	100	100	100	100	100	90	90	80	100	–	100	–	90	–	90	100	100	80	100	ECHCG pre-emergence efficacy (herbicidal activity) (Echinochloa crus-galli [1]; Dosage 80 g/ha): 90%; AMARE pre-emergence efficacy (herbicidal activity) (Amaranthus retroflexus [3]; Dosage 80 g/ha): 100%; post-emergence efficacy AMARE (Amaranthus retroflexus [9]; 80 g/ha): 80%; post-emergence efficacy AMARE (Amaranthus retroflexus [9]; 320 g/ha): 90%; post-emergence efficacy VERPE (Veronica persica [10]; 80 g/ha): 80%
CC(=O)c1c(N)nc(NC2CCCc3sc(C)cc32)nc1C(F)(F)F (racemic) [compound 268]	–	100	100	100	100	90	–	90	80	90	90	100	–	80	80	80	80	90	–	–	AMARE pre-emergence efficacy (herbicidal activity) (Amaranthus retroflexus [3]; Dosage 80 g/ha): 100%; SETVI pre-emergence efficacy (herbicidal activity) (Setaria viridis [5]; Dosage 80 g/ha): 90%; ALOMY pre-emergence efficacy (herbicidal activity) (Alopecurus myosuroides; Dosage 80 g/ha): 80%; post-emergence efficacy STEME (Stellaria media [8]; 80 g/ha): 100%; post-emergence efficacy VERPE (Veronica persica [10]; 80 g/ha): 80%
C=C(c1cnc(NC2CCCc3sc(C)cc32)nc1N)C(F)(F)F (racemic) [compound 275]	100	100	100	100	100	100	90	100	100	100	80	90	70	90	80	70	90	100	60	70	AMARE pre-emergence efficacy (herbicidal activity) (Amaranthus retroflexus [3]; Dosage 80 g/ha): 70%; SETVI pre-emergence efficacy (herbicidal activity) (Setaria viridis [5]; Dosage 80 g/ha): 90%; ALOMY pre-emergence efficacy (herbicidal activity) (Alopecurus myosuroides; Dosage 80 g/ha): 80%; post-emergence efficacy STEME (Stellaria media [8]; 80 g/ha): 90%; post-emergence efficacy ABUTH (Abutilon theophrasti; 80 g/ha): 80%; post-emergence efficacy ABUTH (Abutilon theophrasti; 320 g/ha): 90%; post-emergence efficacy SETVI (Setaria viridis [11]; 80 g/ha): 70%
CCOC(=O)c1cnc(NC2CCCc3sc(C)cc32)nc1N (racemic) [compound 293]	80	100	100	–	100	100	70	100	–	100	70	100	90	90	–	70	90	100	60	–	post-emergence efficacy STEME (Stellaria media [8]; 80 g/ha): 80%; post-emergence efficacy PHBPU (Ipomoea purpurea; 80 g/ha): 80%
Cc1cc2c(s1)CCCC2Nc1ncc(-c2cccc(C(F)(F)F)c2)c(N)n1 (racemic) [compound 294]	–	100	–	100	100	–	90	100	80	90	100	–	–	90	–	–	–	100	100	80	ALOMY pre-emergence efficacy (herbicidal activity) (Alopecurus myosuroides; Dosage 80 g/ha): 70%; POLCO pre-emergence efficacy (herbicidal activity) (Polygonum convolvulus; Dosage 80 g/ha): 70%; post-emergence efficacy ABUTH (Abutilon theophrasti; 80 g/ha): 60%; post-emergence efficacy ABUTH (Abutilon theophrasti; 320 g/ha): 70%; post-emergence efficacy AMARE (Amaranthus retroflexus [9]; 80 g/ha): 70%; post-emergence efficacy AMARE (Amaranthus retroflexus [9]; 320 g/ha): 70%
CN=C(C)c1cnc(NC2CCCc3sc(C)cc32)nc1N (centres unmarked) [compound 352]	–	100	100	100	100	100	90	90	80	100	–	–	–	100	80	80	90	100	60	60	POLCO pre-emergence efficacy (herbicidal activity) (Polygonum convolvulus; Dosage 80 g/ha): 60%; post-emergence efficacy ABUTH (Abutilon theophrasti; 80 g/ha): 80%; post-emergence efficacy ABUTH (Abutilon theophrasti; 320 g/ha): 90%
